Measured values taken from US20230203060A1 (GENFLEET THERAPEUTICS (SHANGHAI) INC., priority 2020, published 2023).
pIC50: −log10 of the molar value.

Legend:
[1] = test system: KRAS G12C mutant NCI-H358 cells; assay: Cell proliferation inhibition experiment, 3D spheroid, CellTiter-Glo, NCI-H358; type: cell-based, human; conditions: Homo sapiens, NCI-H358, 120 h, NCI-H358 (KRAS G12C mutant) 3D spheroid, 5 days with compound, CellTiter-Glo; read-out: H358 IC50
How it was run: (§1)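 CellTiter-Glo luminescence after 5 days' compound treatment (3.16-fold series, 0.1% DMSO) of overnight-formed spheroids in 2% FBS medium: H358 seeded at 800 cells/well in RPMI-1640, A549 at 400 cells/well in F-12K. IC50 derived by four-parameter fit of inhibition normalized to DMSO control and blank.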

[2] = test system: A549 cells (KRAS G12S mutant); assay: Cell proliferation inhibition experiment, 3D spheroid, CellTiter-Glo, A549; type: cell-based, human; conditions: Homo sapiens, A549, 120 h, A549 (KRAS G12S mutant) 3D spheroid, 5 days with compound, CellTiter-Glo; read-out: A549 IC50
How it was run: as §1

Row | Structure (SMILES) | pIC50 [1] | pIC50 [2]
1 | C=CC(=O)N1CCN2C(=O)c3c(N4CC(N(C)CC(F)(F)F)CC4(C)C)nc(-c4ccccc4F)c(Cl)c3OC[C@H]2C1 (mixture of isomers) [Z491a, (6aR)-8-acryloyl-4-chloro-1-(2,2-dimethyl-4-(methyl(2,2,2-trifluoroethyl)amino)pyrrolidin-1-yl)-3-(2-fluorophenyl)-6,6a,7,8,9,10-hexahydro-12H-pyrazino[2,1-c]pyrido[3,4-f][1,4]oxazepin-12-one] | 8.70 | 5.39
2 | C=CC(=O)N1CCN2C(=O)c3c(N4C[C@@H](N(C)C)CC4(C)C)nc(-c4c(F)ccc(F)c4O)c(Cl)c3OC[C@H]2C1 [Z475-1, (6aR)-8-acryloyl-4-chloro-3-(3,6-difluoro-2-hydroxyphenyl)-1-((S)-4-(dimethylamino)-2,2-dimethylpyrrolidin-1-yl)-6,6a,7,8,9,10-hexahydro-12H-pyrazino[2,1-c]pyrido[3,4-f][1,4]oxazepin-12-one] | 8.70 | 5.29
3 | C=CC(=O)N1CCN2C(=O)c3c(N4C[C@@H](N5CCN(C)CC5)CC4(C)C)nc(-c4c(F)cccc4Cl)c(Cl)c3OC[C@H]2C1 (single isomer, unassigned) [Z635-1] | 9.10 | 5.64
4 | C=CC(=O)N1CCN2C(=O)c3c(N4CCC5CC54)nc(-c4c(O)cccc4F)c(Cl)c3OC[C@H]2C1 (stereo partly drawn) [Z39, (6aR)-8-acryloyl-1-(2-azabicyclo[3.1.0]hexart-2-yl)-4-chloro-3-(2-fluoro-6-hydroxyphenyl)-6,6a,7,8,9,10-hexahydro-12H-pyrazino[2,1-c]pyrido[3,4-f][1,4]oxazepin-12-one] | 8.05 | 5.52
5 | C=CC(=O)N1CCN2C(=O)c3c(N4CCC[C@H]4C)nc(-c4c(O)cccc4F)c(Cl)c3OC[C@H]2C1 [Z48, (6aR)-8-acryloyl-1-((R)-2-methylpyrrolidin-1-yl)-4-chloro-3-(2-fluoro-6-hydroxyphenyl)-6,6a,7,8,9,10-hexahydro-12H-pyrazino[2,1-c]pyrido[3,4-f][1,4]oxazepin-12-one] | 7.82 | < 5.30
6 | C=CC(=O)N1CCN2C(=O)c3c(N4C[C@@H](NCC(F)(F)F)CC4(C)C)nc(-c4ccccc4F)c(Cl)c3OC[C@H]2C1 (single isomer, unassigned) [Z662-1] | 8.52 | 5.39
7 | C=CC(=O)N1CCN2C(=O)c3c(N4C[C@@H](N5CC(F)(F)C5)CC4(C)C)nc(-c4ccccc4F)c(Cl)c3OC[C@H]2C1 (single isomer, unassigned) [Z525-2] | 8.11 | 5.24
8 | C=CC(=O)N1CCN2C(=O)c3c(N4CCN(C)C[C@@H]4C)nc(-c4c(F)cccc4OC)c(F)c3OC[C@H]2C1 [Z451, (6aR)-8-acryloyl-1-((S)-2,4-dimethylpiperazin-1-yl)-4-fluoro-3-(2-fluoro-6-methoxyphenyl)-6,6 a,7,8,9,10-hexahydro-12H-pyrazino[2,1-c]pyrido[3,4-f][1,4]oxazepin-12 (6 aH)-one] | 6.80 | 5.24
9 | C=CC(=O)N1CCN2C(=O)c3c(N4CC(N5CCN(C)CC5)CC4(C)C)nc(-c4ccccc4F)c(F)c3OC[C@H]2C1 (stereo partly drawn) [Z474, (6aR)-8-acryloyl-1-(2,2-dimethyl-4-(4-methylpiperazin-1-yl)pyrrolidin-1-yl)-4-fluoro-3-(2-fluorophenyl)-6,6a,7,8,9,10-hexahydro-12H-pyrazino[2,1-c]pyrido[3,4-f][1,4]oxazepin-12-one] | 8.05 | 5.17
10 | C=CC(=O)N1CCN2C(=O)c3c(N4CC(N(C)CC(F)F)CC4(C)C)nc(-c4ccccc4F)c(Cl)c3OCC2C1 (single isomer, unassigned) [Z659-2] | 9.00 | 5.58
11 | C=CC(=O)N1CCN2C(=O)c3c(N4C[C@@H](N(C)C)CC4(C)C)nc(-c4ccccc4F)c(Cl)c3OC[C@H]2C1 [Z453-1, (R)-8-acryloyl-4-chloro-1-((S)-4-(dimethylamino)-2,2-dimethylpyrrolidin-1-yl)-3-(2-fluorophenyl)-6,6a,7,8,9,10-hexahydro-12H-pyrazino[2,1-c]pyrido[3,4-f][1,4]oxazepin-12-one] | 8.22 | 5.48
12 | C=CC(=O)N1CCN2C(=O)c3c(N4C[C@@H](N(C)CC(F)(F)F)CC4(C)C)nc(-c4ccccc4F)c(Cl)c3OC[C@H]2C1 (single isomer, unassigned) [Z491] | 8.85 | 5.34
13 | C=CC(=O)N1CCN2C(=O)c3c(N4C[C@@H](N(C)CCO)CC4(C)C)nc(-c4ccccc4F)c(Cl)c3OC[C@H]2C1 (single isomer, unassigned) [Z658-1] | 9.00 | 5.53
14 | C=CC(=O)N1CCN2C(=O)c3c(N4C[C@H](N5CCN(C)CC5)CC4(C)C)nc(-c4c(O)cccc4F)c(Cl)c3OC[C@H]2C1 (single isomer, unassigned) [Z469-2] | 8.70 | 5.07
15 | C=CC(=O)N1CCN2C(=O)c3c(N4CC(O)CC4(C)C)nc(-c4c(O)cccc4F)c(Cl)c3OC[C@H]2C1 (stereo partly drawn) [Z50, (6aR)-8-amyloyl-4-chloro-3-(2-fluoro-6-hydroxyphenyl)-1-(4-hydroxy-2,2-dimethylpyrrolidin-1-yl)-6,6a,7,8,9,10-hexahydro-12H-pyrazino[2,1-c]pyrido[3,4-f][1,4]oxazepin-12-one] | 8.70 | < 5.30
16 | C=CC(=O)N1CCN2C(=O)c3c(N4C[C@@H](N5CCN(C)CC5)CC4(C)C)nc(-c4c(O)cccc4F)c(Cl)c3OC[C@H]2C1 (single isomer, unassigned) [Z469-1] | 9.30 | 5.28
17 | C=CC(=O)N1CCN2C(=O)c3c(N4C[C@@H](N(C)C)CC4(C)C)nc(-c4cccc(C)c4F)c(Cl)c3OC[C@H]2C1 (single isomer, unassigned) [Z472-1] | 7.80 | 5.76
18 | C=CC(=O)N1CCN2C(=O)c3c(N4C[C@@H](N(C)CCF)CC4(C)C)nc(-c4ccccc4F)c(Cl)c3OC[C@H]2C1 (single isomer, unassigned) [Z660-1] | 8.77 | 5.49
19 | C=CC(=O)N1CCN2C(=O)c3c(N4C[C@@H](N5CCN(C)CC5)CC4(C)C)nc(-c4ccccc4F)c(F)c3OC[C@H]2C1 (single isomer, unassigned) [Z474-1] | 8.08 | 5.10
20 | C=CC(=O)N1CCN2C(=O)c3c(N4CCC[C@@]4(C)C(=O)NC)nc(-c4c(O)cccc4F)c(Cl)c3OC[C@H]2C1 [Z462, (2S)-1-((6aR)-8-acryloyl-4-chloro-3-(2-fluoro-6-hydroxyphenyl)-12-oxo-6,6a,7,8,9,10-hexahydro-12H-pyrazino[2,1-c]pyrido[3,4-f][1,4]oxazepin-1-yl)-N,2-dimethylpyrrolidine-2-carboxamide] | 7.91 | 4.54
21 | C=CC(=O)N1CCN2C(=O)c3c(N4CCN(C)C[C@@H]4C)nc(-c4c(O)cccc4Cl)c(Cl)c3OC[C@H]2C1 [Z452, (6aR)-8-acryloyl-4-chloro-3-(2-chloro-6-hydroxyphenyl)-1-((S)-2,4-dimethylpiperazin-1-yl)-6,6a,7,8,9,10-hexahydro-12H-pyrazino[2,1-c]pyrido[3,4-f][1,4]oxazepin-12-one] | 8.41 | 5.05
22 | C=CC(=O)N1CCN2C(=O)c3c(N4C[C@H](N(C)C)CC4(C)C)nc(-c4cccc(C)c4F)c(Cl)c3OC[C@H]2C1 (single isomer, unassigned) [Z472-2] | 8.10 | 5.78
